For series [1], the system named is NCI-H226 (NF2 expression-deficient) human lung squamous cell carcinoma xenograft. Briefly: In vivo efficacy in subcutaneous NCI-H226 xenograft model. As to conditions: QD, oral, day 45, NCI-H226 xenograft in BALB/c nude mice. As for the experimental part: In vivo pharmacodynamics and efficacy studies of the compound represented by Formula I were performed in a subcutaneous NCI-H226 (NF2 expression-deficient) human lung squamous cell carcinoma xenograft model in BALB/c nude mice.
BALB/c nude female mice (6 weeks to 7 weeks) were inoculated subcutaneously with 1×10^7 NCI-H226 tumor cells on the right side of each. The inoculated cells were resuspended in a mixture solution of 0.1 mL of PBS and matrix gel Matrigel (PBS: Matrigel=1:1). Administration treatment was started in groups when the average tumor size reached about 100 mm^3 to 200 mm^3. From the date of grouping, the mice were orally administered the crystal form A of the compound represented by Formula I (solvent: 10% DMSO+10% Solutol (KollipHor HS15)+80% physiological saline) once a day for a total of 45 days (QD×45 days). Animals were regularly monitored for changes in body weight as an indicator of compound safety. Tumors were measured twice weekly using a caliper, and the volume was expressed in mm^3 using the formula “V=(L×W^2)/2”, where V is the tumor volume, L is the length of the tumor (the longest tumor dimension) and W is the width of the tumor (the longest tumor dimension perpendicular to L). Compound inhibitory activity was assessed by tumor growth inhibition TGI (%). […]

Series [2] in a line: Hygroscopicity test (DVS). The format is physicochemical.
The nature of series [3]: Physicochemical stability test of the crystal form A. As to conditions: influencing factors (40° C., 60° C., 92.5% RH, 75% RH, 4500Lx), accelerated test, long-term test. As for the experimental part:
Referring to the requirements of “9001 Guidelines for Stability Test of APIs and Pharmaceutical Preparations” in the Chinese Pharmacopoeia, the stability test was conducted on the crystal form A of the compound represented by Formula I, and the specific test conditions are shown in Table 10.

The nature of series [4]: Pressure stability of the crystal form A. The conditions noted are these: pressure conditions of 150 kg and 230 kg. The format is physicochemical.
Series [5] concerns YAP/TAZ-TEAD transcription complex. Briefly: CTGF detection (ELISA method) in NCI-H2052 cells. The format is cell-based, human. The conditions noted are these: NCI-H2052 cells (NF2 mutation), 24 hours incubation, CTGF in culture supernatant by ELISA; read-out: EC50 value (CTGF concentration response curve). How it is done:
The detection of CTGF expression level may assess the activity of the YAP/TAZ-TEAD transcription complex. CTGF expression level was quantitatively detected using a human SimpleStep ELISA® kit (Abcam, ab261851).
NCI-H2052 cells (purchased from ATCC, NF2 mutation) were cultured in RPMI 1640 complete medium (containing 10% FBS, 1% penicillin-streptomycin solution and I mM sodium pyruvate). The day before compound treatment, cultured cells were washed with PBS, digested with trypsin, and then collected by centrifugation. The supernatant was removed, and the cells were resuspended in fresh complete medium. Cells were counted and inoculated in 96-well plates at a density of 6500 cells/well. […]
The Human CTGF ELISA Kit uses an affinity labeled capture antibody and a reporter gene coupled detection antibody to immunocapture the sample analytes in the solution. […] 50 μL of standard or cell supernatant sample to be detected were added to the wells of the detection plate. […] Finally, the OD value at 450 nm of each well was read on a multifunctional microplate reader. The concentrations of the target CTGF protein in the samples were determined by standard curve.
The inhibitory activity of the compound of the present application on the transcription regulatory function of TEAD-YAP/TAZ was assessed by the CTGF concentration response curve of the compound. […]

Series [6] has as its system NCI-H226 cells. Briefly: Cell proliferation inhibitory activity detection (CTG detection). It counts as cell-based. As to conditions: Homo sapiens; NCI-H226 cells (NF2 expression-deficient), 144 h, CellTiter-Glo; read-out: IC50 value (inhibition of cell proliferation). As for the experimental part:
The inhibition of the compound on cell proliferation was detected using CellTiter-Glo® Luminescent Cell Viability Assay Kit (Promega Company). NCI-H226 cells (purchased from ATCC, NF2 expression-deficient) were cultured in RPMI 1640 complete medium (containing 10% FBS, 1% penicillin-streptomycin solution and 1 mM sodium pyruvate). • a) The day before compound treatment, cultured cells were washed with PBS, digested with trypsin, and then collected by centrifugation. The supernatant was removed and the cells were resuspended in fresh RPMI 1640 complete medium. […] Finally, the luminescence signal value (RLU) of each well was read on a multifunctional microplate reader PE En Vision®.
Inhibition rate (IR) of the detected compound: IR (%)=(1−(RLU compound−RLU blank control)/(RLU solvent control−RLU blank control))*100%. The inhibition rates of the compounds at different concentrations were calculated in Excel, then software GraphPad Prism was used to generate inhibition curves, and the relevant parameters were calculated, including the minimum inhibition rate Bottom. the maximum inhibition rate Top and IC50. […]

Series [7] is described as follows: Pharmacokinetics in plasma of mice after oral administration. It counts as in vivo. The conditions noted are these: female, BALB/c, mouse, oral (gavage, clear solution), single dose 5 mg/kg. How it is done: Adult BALB/c female mice (6 weeks to 7 weeks) were received a single administration of the compound represented by Formula I containing 10% to 20% DMSO, 10% Solutol (KollipHor HS15) and 80% to 70% physiological saline as excipient. Mice (n=3) were administered orally (gavage, clear solution) at a dose of 5 mg/kg. Blood was collected after oral administration at the following points of time: 15 min, 30 min, 1 h, 2 h, 4 b, 7 h, and 24 h. About 0.1 mL of whole blood was collected from the retro-orbital venous plexus and placed in a test tube containing EDTA anticoagulant. Samples were centrifuged at 4° C. and 4000 rpm for 10 min. Plasma was transferred to a centrifugal tube and stored at −20° C. before analysis. The concentration of test compound in plasma samples was analyzed by liquid chromatography-tandem mass spectrometry (LC-MS/MS). Plasma concentration-time data from individual animals were analyzed using software Sciex Analyst. A non-compartmental model was introduced in the concentration analysis, and pharmacokinetic parameters of the test compound were calculated using software WinNonlin (version 4.1; pHarsight).

With `C=C(F)C(=O)N1CC(n2c(=O)n(-c3ccc(C(F)(F)F)cc3)c3nccnc32)C1` [1-[1-(2-fluoroacryloyl)azetidin-3-yl]-3-(4-trifluoromethylphenyl)-1,3-dihydro-2H-imidazo[4,5-b]pyrazin-2-one], the “TGI (%)” value in series [1] (10 mg/kg) was 109%; in series [1] (50 mg/kg) it was 111%. For the same compound, the “Crystal form after the DVS test (XRPD)” value in series [2] (after DVS test, XRPD detection) was “no change in the crystal form”. For the same compound, the “Hygroscopicity (DVS)” value in series [2] (dynamic vapor sorption analyzer) was “no hygroscopicity”. Also, the “Change in crystal form, characteristics and content compared with day 0” value in series [3] is reported as “no significant change”. Also, the “Crystal form after pressing” value in series [4] is listed as “the crystal form was not changed”.
For the compound `C=C(F)C(=O)N1CC(n2c(=O)n(-c3ccc(C(F)(F)F)cc3)c3nccnc32)C1` [compound represented by Formula I, 1-[1-(2-fluoroacryloyl)azetidin-3-yl]-3-(4-trifluoromethylphenyl)-1,3-dihydro-2H-imidazo[4,5-b]pyrazin-2-one], the EC50 in series [5] is 2 nM. In addition, the IC50 in series [6] is 7 nM. In series [7], this compound yielded an AUC(0-t) of 17200 ng·h/mL and a Cmax of 1970 ng/mL.
